pIC50: −log10 of the molar value.

The experiment concerns the target T1, HIV-integrase (Human immunodeficiency virus type 1 group M subtype B, UniProt P12497).
T1 construct: Recombinant integrase (0.26 ng) was incubated with the beads
In words: HIV-Integrase Inhibition Activity (SPA bead strand-transfer assay). Format: biochemical. The conditions noted are these: Table 1; read-out: Activity (HIV-integrase inhibition, IC50 class). How it is done:
HIV-Integrase Inhibition Activity. To evaluate in-vitro activity against HIV-integrase, 5 pmole of biotin labeled substrate DNA was bound to 100 μg of Streptavidin coated PVT SPA beads (Amersham Pharmacia Biotech). Recombinant integrase (0.26 ng) was incubated with the beads for 90 min at 37° C. Unbound enzyme was removed by washing the complex followed by addition of inhibitors and 0.1 fmol of P33 labeled target DNA. The reaction was stopped by adding EDTA to a final concentration of 10 mM. Samples were counted in TopCountNXT (Packard) and the CPM was used as a measure of integration. The reaction condition was as described in A. Engelman and R. Craigie, J. Virol 69, 5908-5911 (1995). The sequences of substrate and target DNA were described in Nucleic Acid Research 22, 1121-1122 (1994).
Regarding `CNC(=O)c1cc(F)ccc1CNC(=O)c1nc2n(c(=O)c1O)CCOC2` [Example 3, Pyrimido[2,1-c][1,4]oxazine-2-carboxamide, N-[[4-fluoro-2-[(methylamino)carbonyl]phenyl]methyl]-4,6,7,9-tetrahydro-3-hydroxy-4-oxo-], the negative logarithm of the IC50 (pIC50) (commonly the negative decadic logarithm of the IC50, by convention in mol/L) is 7.00 to 8.70.
For the molecule `Cc1ccc(CNC(=O)c2nc3n(c(=O)c2O)CCOC3C)cc1C` (centres unmarked) [Example 8, Pyrimido[2,1-c][1,4]oxazine-2-carboxamide, N-[(3,4-dimethylphenyl)methyl]-4,6,7,9-tetrahydro-3-hydroxy-9-methyl-4-oxo-], the pIC50 is 7.00 to 8.70.
For `CNC(=O)c1cc(F)ccc1CNC(=O)c1nc2n(c(=O)c1O)CCOC2C` (centres unmarked) [Example 9, Pyrimido[2,1-c][1,4]oxazine-2-carboxamide, N-[[4-fluoro-2-[(methylamino)carbonyl]phenyl]methyl]-4,6,7,9-tetrahydro-3-hydroxy-9-methyl-4-oxo-] the value was 7.00 to 8.70; for `CCC1OCCn2c1nc(C(=O)NCc1ccc(F)cc1)c(O)c2=O` (centres unmarked) [Example 10, Pyrimido[2,1-c][1,4]oxazine-2-carboxamide, 9-ethyl-N-[(4-fluorophenyl)methyl]-4,6,7,9-tetrahydro-3-hydroxy-4-oxo-], 7.00 to 8.70; for `CCC1OCCn2c1nc(C(=O)NCc1ccc(F)c(C)c1)c(O)c2=O` (centres unmarked) [Example 11, Pyrimido[2,1-c][1,4]oxazine-2-carboxamide, 9-ethyl-N-[(4-fluoro-3-methylphenyl)methyl]-4,6,7,9-tetrahydro-3-hydroxy-4-oxo-], 7.00 to 8.70.
To `CCC1OCCn2c1nc(C(=O)NCc1ccc(Cl)c(Cl)c1)c(O)c2=O` (centres unmarked) [Example 12, Pyrimido[2,1-c][1,4]oxazine-2-carboxamide, N-[(3,4-dichlorophenyl)methyl]-9-ethyl-4,6,7,9-tetrahydro-3-hydroxy-4-oxo-] belongs 7.00 to 8.70; to `CCC1OCCn2c1nc(C(=O)NCc1ccc(C)c(C)c1)c(O)c2=O` (centres unmarked) [Example 13, Pyrimido[2,1-c][1,4]oxazine-2-carboxamide, N-[(3,4-dimethylphenyl)methyl]-9-ethyl-4,6,7,9-tetrahydro-3-hydroxy-4-oxo-], 7.00 to 8.70.
For `CCC1OCCn2c1nc(C(=O)NCc1ccc(F)c(Cl)c1)c(O)c2=O` (centres unmarked) [Example 14, Pyrimido[2,1-c][1,4]oxazine-2-carboxamide, N-[(3-chloro-4-fluorophenyl)methyl]-9-ethyl-4,6,7,9-tetrahydro-3-hydroxy-4-oxo-] the value was 7.00 to 8.70; for `CCC1OCCn2c1nc(C(=O)NCc1ccc(F)cc1C(=O)NC)c(O)c2=O` (centres unmarked) [Example 15, Pyrimido[2,1-c][1,4]oxazine-2-carboxamide, 9-ethyl-N-[[4-fluoro-2-[(methylamino)carbonyl]phenyl]methyl]-4,6,7,9-tetrahydro-3-hydroxy-4-oxo-], 7.00 to 8.70; for `CCC1OCCn2c1nc(C(=O)NCc1ccc(F)cc1-n1cncn1)c(O)c2=O` (centres unmarked) [Example 16, Pyrimido[2,1-c][1,4]oxazine-2-carboxamide, 9-ethyl-N-[[4-fluoro-2-(1H-1,2,4-triazol-1-yl)phenyl]methyl]-4,6,7,9-tetrahydro-3-hydroxy-4-oxo-], 7.00 to 8.70.
Turning to `CC(C)C1OCCn2c1nc(C(=O)NCc1ccc(F)cc1)c(O)c2=O` (centres unmarked) [Example 17, Pyrimido[2,1-c][1,4]oxazine-2-carboxamide, N-[(4-fluorophenyl)methyl]-4,6,7,9-tetrahydro-3-hydroxy-9-(1-methylethyl)-4-oxo-], the pIC50 was 7.00 to 8.70.
To `Cc1cc(CNC(=O)c2nc3n(c(=O)c2O)CCOC3C(C)C)ccc1F` (centres unmarked) [Example 18, Pyrimido[2,1-c][1,4]oxazine-2-carboxamide, N-[(4-fluoro-3-methylphenyl)methyl]-4,6,7,9-tetrahydro-3-hydroxy-9-(1-methylethyl)-4-oxo-] belongs 7.00 to 8.70; to `Cc1cc(CNC(=O)c2nc3n(c(=O)c2O)CCOC3(C)C)ccc1F` [Example 20, Pyrimido[2,1-c][1,4]oxazine-2-carboxamide, N-[(4-fluoro-3-methylphenyl)methyl]-4,6,7,9-tetrahydro-3-hydroxy-9,9-dimethyl-4-oxo-], 7.00 to 8.70; to `CC1(C)OCCn2c1nc(C(=O)NCc1ccc(F)cc1-n1cncn1)c(O)c2=O` [Example 21, Pyrimido[2,1-c][1,4]oxazine-2-carboxamide, N-[[4-fluoro-2-(1H-1,2,4-triazol-1-yl)phenyl]methyl]-4,6,7,9-tetrahydro-3-hydroxy-9,9-dimethyl-4-oxo-], 7.00 to 8.70.
For `CC1(C)OCCn2c1nc(C(=O)NCc1ccc(-n3cncn3)cc1F)c(O)c2=O` [Example 22, Pyrimido[2,1-c][1,4]oxazine-2-carboxamide, N-[[2-fluoro-4-(1H-1,2,4-triazol-1-yl)phenyl]methyl]-4,6,7,9-tetrahydro-3-hydroxy-9,9-dimethyl-4-oxo-], the pIC50 was 6.00 to 7.00.
With `CC1(C)OCCn2c1nc(C(=O)NCc1ccc(F)cc1N1CCOCC1)c(O)c2=O` [Example 23, Pyrimido[2,1-c][1,4]oxazine-2-carboxamide, N-[[4-fluoro-2-(4-morpholinyl)phenyl]methyl]-4,6,7,9-tetrahydro-3-hydroxy-9,9-dimethyl-4-oxo-], the negative-log IC50 (pIC50) is 7.00 to 8.70.
To `CC1(C)OCCn2c1nc(C(=O)NCc1ccc(N3CCOCC3)cc1F)c(O)c2=O` [Example 24, Pyrimido[2,1-c][1,4]oxazine-2-carboxamide, N-[[2-fluoro-4-(4-morpholinyl)phenyl]methyl]-4,6,7,9-tetrahydro-3-hydroxy-9,9-dimethyl-4-oxo-] belongs 6.00 to 7.00.
Turning to `CC1(C)OCCn2c1nc(C(=O)NCCCc1ccc(Cl)c(Cl)c1)c(O)c2=O` [Example 25, Pyrimido[2,1-c][1,4]oxazine-2-carboxamide, N-[3-(3,4-dichlorophenyl)propyl]-4,6,7,9-tetrahydro-3-hydroxy-9,9-dimethyl-4-oxo-], the pIC50 is 6.00 to 7.00.
Take `CC1(C)OCCn2c1nc(C(=O)NCCCc1ccc(F)cc1)c(O)c2=O` [Example 26, Pyrimido[2,1-c][1,4]oxazine-2-carboxamide, N-[3-(4-fluorophenyl)propyl]-4,6,7,9-tetrahydro-3-hydroxy-9,9-dimethyl-4-oxo-]: the negative-log IC50 (pIC50) is 7.00 to 8.70.
To `CC1(C)OCCn2c1nc(C(=O)NCc1ccc(F)cc1N1CCCCS1(=O)=O)c(O)c2=O` [Example 27, Pyrimido[2,1-c][1,4]oxazine-2-carboxamide, N-[[4-fluoro-2-(tetrahydro-1,1-dioxido-2H-1,2-thiazin-2-yl)phenyl]methyl]-4,6,7,9-tetrahydro-3-hydroxy-9,9-dimethyl-4-oxo-] belongs 7.00 to 8.70; to `CC1(C)OCCn2c1nc(C(=O)NCc1ncc(F)cc1F)c(O)c2=O` [Example 28, Pyrimido[2,1-c][1,4]oxazine-2-carboxamide, N-[(3,5-difluoro-2-pyridinyl)methyl]-4,6,7,9-tetrahydro-3-hydroxy-9,9-dimethyl-4-oxo-], 7.00 to 8.70; to `CC1(C)OCCn2c1nc(C(=O)NCc1ccc(Cl)cn1)c(O)c2=O` [Example 29, N-((5-Chloropyridin-2-yl)methyl)-3-hydroxy-9,9-dimethyl-4-oxo-4,6,7,9-tetrahydropyrimido[2,1-c][1,4]oxazine-2-carboxamide], 7.00 to 8.70.
For `CC1(C)OCCn2c1nc(C(=O)NCc1ccc(F)c(Br)c1)c(O)c2=O` [Example 30, Pyrimido[2,1-c][1,4]oxazine-2-carboxamide, N-[(3-bromo-4-fluorophenyl)methyl]-4,6,7,9-tetrahydro-3-hydroxy-9,9-dimethyl-4-oxo-], the pIC50 was 7.00 to 8.70.
For `Cc1ccc(CNC(=O)c2nc3n(c(=O)c2O)CCOC3(C)C)cc1C` [Example 31, Pyrimido[2,1-c][1,4]oxazine-2-carboxamide, N-[(3,4-dimethylphenyl)methyl]-4,6,7,9-tetrahydro-3-hydroxy-9,9-dimethyl-4-oxo-] the value was 7.00 to 8.70; for `CC1(C)OCCn2c1nc(C(=O)NCc1ccc(F)c(Cl)c1)c(O)c2=O` [Example 32, Pyrimido[2,1-c][1,4]oxazine-2-carboxamide, N-[(3-chloro-4-fluorophenyl)methyl]-4,6,7,9-tetrahydro-3-hydroxy-9,9-dimethyl-4-oxo-], 7.00 to 8.70; for `CC1(C)OCCn2c1nc(C(=O)NCc1ccc(F)c(F)c1)c(O)c2=O` [Example 33, Pyrimido[2,1-c][1,4]oxazine-2-carboxamide, N-[(3,4-difluorophenyl)methyl]-4,6,7,9-tetrahydro-3-hydroxy-9,9-dimethyl-4-oxo-], 7.00 to 8.70.
Turning to `CC1(C)OCCn2c1nc(C(=O)NCc1ccc(Cl)cc1)c(O)c2=O` [Example 34, Pyrimido[2,1-c][1,4]oxazine-2-carboxamide, N-[(4-chlorophenyl)methyl]-4,6,7,9-tetrahydro-3-hydroxy-9,9-dimethyl-4-oxo-], the pIC50 is 7.00 to 8.70.
Take `CC1(C)OCCn2c1nc(C(=O)NCc1ccc(F)cc1F)c(O)c2=O` [Example 35, Pyrimido[2,1-c][1,4]oxazine-2-carboxamide, N-[(2,4-difluorophenyl)methyl]-4,6,7,9-tetrahydro-3-hydroxy-9,9-dimethyl-4-oxo-]: the pIC50 is 7.00 to 8.70.
As to `CC1(C)OCCn2c1nc(C(=O)NCc1ccc(F)cc1Cl)c(O)c2=O` [Example 36, Pyrimido[2,1-c][1,4]oxazine-2-carboxamide, N-[(2-chloro-4-fluorophenyl)methyl]-4,6,7,9-tetrahydro-3-hydroxy-9,9-dimethyl-4-oxo-], the pIC50 is 7.00 to 8.70.

The record behind these values is patent publication US7491819B1 (priority 2004, dated 2009).
